# Measurements published in article PMC6352943, “Novel pyrazolo[3,4-d]pyrimidines: design, synthesis, anticancer activity, dual EGFR/ErbB2 receptor tyrosine kinases inhibitory activity, effects on cell cycle profile and caspase-3-mediated apoptosis” (Journal of Enzyme Inhibition and Medicinal Chemistry, 2019).
# Assays:
# Test in all cases: NCI 60 cell line single dose screen (SRB)
# Assay type in all cases: cell-based
# ACHN = conditions: Homo sapiens; ACHN (renal cancer), single dose 10^−5 M, 48 h; read-out: Growth inhibition percentage
# Procedure: (§1) Anticancer activity screening of the newly synthesised compounds was measured in vitro utilising 60 different human tumour cell lines provided by US National Cancer Institute according to previously reported standard procedure[27–29] as follows: Cells are inoculated into 96-well microtitre plates in 100 ml. After cell inoculation, the microtitre plates are incubated at 37 °C, 5% CO2, 95% air and 100% relative humidity for 24 h prior to addition of experimental compounds. After 24 h, two plates of each cell line are fixed in situ with TCA, to represent a measurement of the cell population for each cell line at the time of drug addition (Tz). Experimental compounds are solubilised in dimethyl sulphoxide at 400-fold the desired final maximum test concentration and stored frozen prior to use. At the time of compound addition, an aliquot of frozen concentrate is thawed and diluted to twice the desired final maximum test concentration with complete medium containing […] gentamicin. Aliquots of […] of the compounds dilutions are added to the appropriate microtitre wells already containing 100 ml of medium, resulting in the required final compound concentration. Following compound addition, the plates are incubated for an additional 48 h at 37 °C, 5% CO2, 95% air, and 100% relative humidity. For adherent cells, the assay is terminated by the addition of cold trichloroacetic acid (TCA). Cells are fixed in situ by the gentle addition of 50 ml of cold 50% (w/v) TCA (final concentration, 10% TCA) and incubated for 60 min at 4 °C. The supernatant is discarded, and the plates are washed five times with tap water and air-dried. Sulphorhodamine B (SRB) solution (100 ml) at 0.4% (w/v) in 1% acetic acid is added to each well, and plates are incubated for 10 min at room temperature. After staining, unbound dye is removed by washing five times with 1% acetic acid and the plates are air-dried. Bound stain is subsequently solubilised with 10 mM trizma base, and the absorbance is read on an automated plate reader at a wavelength of 515 nm. For suspension cells, the methodology is the same except that the assay is terminated by fixing settled cells at the bottom of the wells by gently adding 50 ml of 80% TCA (final concentration, 16% TCA). Using the absorbance measurements [time zero, (Tz), control growth, (C), and test growth in the presence of compound (Ti)], the percentage growth is calculated for each compound. Percentage growth inhibition is calculated as: [(Ti – Tz)/(C – Tz)] x 100 for concentrations for which Ti >/=Tz. [(Ti – Tz)/Tz] x 100 for concentrations for which Ti < Tz.
# BT-549 = conditions: Homo sapiens; BT-549 (breast cancer), single dose 10^−5 M, 48 h; read-out: Growth inhibition percentage
# Procedure: as §1
# CCRF-CEM = conditions: Homo sapiens; CCRF-CEM (leukemia), single dose 10^−5 M, 48 h; read-out: Growth inhibition percentage
# Procedure: as §1
# HCT-15 = conditions: Homo sapiens; HCT-15 (colon cancer), single dose 10^−5 M, 48 h; read-out: Growth inhibition percentage
# Procedure: as §1
# HOP-92 = conditions: Homo sapiens; HOP-92 (non-small cell lung cancer), single dose 10^−5 M, 48 h; read-out: Growth inhibition percentage
# Procedure: as §1
# K-562 = conditions: Homo sapiens, K562; K-562 (leukemia), single dose 10^−5 M, 48 h; read-out: Growth inhibition percentage
# Procedure: as §1
# M14 = conditions: Homo sapiens; M14 (melanoma), single dose 10^−5 M, 48 h; read-out: Growth inhibition percentage
# Procedure: as §1
# MDA-MB-231/ATCC = conditions: Homo sapiens; MDA-MB-231/ATCC (breast cancer), single dose 10^−5 M, 48 h; read-out: Growth inhibition percentage
# Procedure: as §1
# MDA-MB-435 = conditions: Homo sapiens; MDA-MB-435 (melanoma), single dose 10^−5 M, 48 h; read-out: Growth inhibition percentage
# Procedure: as §1
# MDA-MB-468 = conditions: Homo sapiens; MDA-MB-468 (breast cancer), single dose 10^−5 M, 48 h; read-out: Growth inhibition percentage
# Procedure: as §1
# MOLT-4 = conditions: Homo sapiens; MOLT-4 (leukemia), single dose 10^−5 M, 48 h; read-out: Growth inhibition percentage
# Procedure: as §1
# NCI-H460 = conditions: Homo sapiens; NCI-H460 (non-small cell lung cancer), single dose 10^−5 M, 48 h; read-out: Growth inhibition percentage
# Procedure: as §1
# RPMI-8226 = conditions: Homo sapiens; RPMI-8226 (leukemia), single dose 10^−5 M, 48 h; read-out: Growth inhibition percentage
# Procedure: as §1
# RXF 393 = conditions: Homo sapiens; RXF 393 (renal cancer), single dose 10^−5 M, 48 h; read-out: Growth inhibition percentage
# Procedure: as §1
# SF-295 = conditions: Homo sapiens; SF-295 (CNS cancer), single dose 10^−5 M, 48 h; read-out: Growth inhibition percentage
# Procedure: as §1
# SK-MEL-2 = conditions: Homo sapiens; SK-MEL-2 (melanoma), single dose 10^−5 M, 48 h; read-out: Growth inhibition percentage
# Procedure: as §1
# SK-MEL-5 = conditions: Homo sapiens; SK-MEL-5 (melanoma), single dose 10^−5 M, 48 h; read-out: Growth inhibition percentage
# Procedure: as §1
# SN12C = conditions: Homo sapiens; SN12C (renal cancer), single dose 10^−5 M, 48 h; read-out: Growth inhibition percentage
# Procedure: as §1
# SNB-75 = conditions: Homo sapiens; SNB-75 (CNS cancer), single dose 10^−5 M, 48 h; read-out: Growth inhibition percentage
# Procedure: as §1
# SW-620 = conditions: Homo sapiens; SW-620 (colon cancer), single dose 10^−5 M, 48 h; read-out: Growth inhibition percentage
# Procedure: as §1
# UO-31 = conditions: Homo sapiens; UO-31 (renal cancer), single dose 10^−5 M, 48 h; read-out: Growth inhibition percentage
# Procedure: as §1
compound,measurement,setting,value
"Cc1nn(-c2ccc(F)cc2)c2ncnc(Nc3ccc(F)c(Cl)c3)c12 [Compound 7d, N-(3-Chloro-4-fluorophenyl)-1–(4-fluorophenyl)-3-methyl-1H-pyrazolo[3,4-d] pyrimidin-4-amine]",inhibition at 10 µM,ACHN,60.4%
same,inhibition at 10 µM,BT-549,-4.84%
same,inhibition at 10 µM,CCRF-CEM,0.7%
same,inhibition at 10 µM,HCT-15,2.75%
same,inhibition at 10 µM,HOP-92,22.8%
same,inhibition at 10 µM,K-562,1.78%
same,inhibition at 10 µM,M14,1.01%
same,inhibition at 10 µM,MDA-MB-231/ATCC,14.2%
same,inhibition at 10 µM,MDA-MB-435,0.1%
same,inhibition at 10 µM,MDA-MB-468,-1.69%
same,inhibition at 10 µM,MOLT-4,4.27%
same,inhibition at 10 µM,NCI-H460,58.5%
same,inhibition at 10 µM,RPMI-8226,9.77%
same,inhibition at 10 µM,RXF 393,-0.39%
same,inhibition at 10 µM,SF-295,40%
same,inhibition at 10 µM,SK-MEL-2,2.61%
same,inhibition at 10 µM,SK-MEL-5,-0.44%
same,inhibition at 10 µM,SN12C,21.5%
same,inhibition at 10 µM,SNB-75,25%
same,inhibition at 10 µM,SW-620,11.1%
same,inhibition at 10 µM,UO-31,25.5%
